Assay results published in ChEMBL document CHEMBL6182906, “Discovery, total synthesis, and biological evaluation of tyrcinnamins as antibacterial agents and tyrosinase activators” (Eur J Med Chem, 2025).
≈ marks a conversion by molar mass, not a printed value. Each block holds one compound with its values, some of them ahead of it. Calls of active or inactive are those of the source. The calls are words filed in the database; no cut-off is given here.

How the values were obtained:
Bacillus subtilis = assay: Antibacterial activity against Bacillus subtilis ATCC6633 assessed as bacterial growth inhibition incubated for 16 hrs by broth microdilution assay; format: functional
Staphylococcus aureus [1] = assay: Antibacterial activity against Staphylococcus aureus ATCC6538 assessed as bacterial growth inhibition at 100 uM incubated for 12 hrs by resazurin assay; format: functional, organism-based
Pseudomonas aeruginosa = assay: Antibacterial activity against Pseudomonas aeruginosa ATCC27853 assessed as bacterial growth inhibition up to 100 uM incubated for 16 hrs by broth microdilution assay; format: functional, organism-based
Escherichia coli = assay: Antibacterial activity against Escherichia coli ATCC8739 assessed as bacterial growth inhibition up to 100 uM incubated for 16 hrs by broth microdilution assay; format: functional, organism-based
[2] = biological target: T1, Mushroom tyrosinase (Agaricus bisporus) (UniProt O42713+Q00024+C7FF04+C7FF05); assay: Inhibition of mushroom tyrosinase using L-DOPA as substrate up to 1 mM preincubated for 10 mins followed by substrate addition measured after 20 mins by absorbance based assay; format: protein assay; settings: time 30.0 min
Staphylococcus aureus [3] = assay: Antibacterial activity against Staphylococcus aureus ATCC6538 assessed as bacterial growth inhibition at 100 uM incubated for 12 hrs by spot assay; format: functional, organism-based
Staphylococcus aureus [4] = assay: Antibacterial activity against Staphylococcus aureus ATCC6538 assessed as bacterial growth inhibition incubated for 16 hrs by broth microdilution assay; format: functional
L02 [5] = assay: Induction of apoptosis in human LO2 cells assessed as late apoptotic cells at 100 uM incubated for 48 hrs by Annexin V-FITC/PI staining based flow cytometry (reference value: 0.044 %); format: functional
Staphylococcus aureus [6] = assay: Antibacterial activity against Staphylococcus aureus ATCC29213 assessed as bacterial growth inhibition incubated for 16 hrs by broth microdilution assay; format: functional
L02 [7] = assay: Induction of apoptosis in human LO2 cells assessed as necrotic cells at 12.5 uM incubated for 48 hrs by Annexin V-FITC/PI staining based flow cytometry (reference value: 1.12 %); format: functional
HaCaT = assay: Cytotoxicity against human HaCaT cells at 100 uM incubated for 72 hrs by CCK8 assay; format: toxicity, cell-based
Staphylococcus aureus [8] = assay: Antibacterial activity against methicillin-resistant Staphylococcus aureus assessed as bacterial growth inhibition incubated for 16 hrs by broth microdilution assay; format: functional
L02 [9] = assay: Induction of apoptosis in human LO2 cells assessed as late apoptotic cells at 12.5 uM incubated for 48 hrs by Annexin V-FITC/PI staining based flow cytometry (reference value: 0.044 %); format: functional
L02 [10] = assay: Induction of apoptosis in human LO2 cells assessed as viable cells at 12.5 uM incubated for 48 hrs by Annexin V-FITC/PI staining based flow cytometry (reference value: 98.0 %); format: functional; settings: read-out: Activity
L02 [11] = assay: Induction of apoptosis in human LO2 cells assessed as necrotic cells at 100 uM incubated for 48 hrs by Annexin V-FITC/PI staining based flow cytometry (reference value: 1.12 %); format: functional
L02 [12] = assay: Induction of apoptosis in human LO2 cells assessed as early apoptotic cells at 50 uM incubated for 48 hrs by Annexin V-FITC/PI staining based flow cytometry (reference value: 0.85 %); format: functional
[13] = biological target: T1, Mushroom tyrosinase (Agaricus bisporus); assay: Activation of mushroom tyrosinase using L-DOPA as substrate at 1 mM preincubated for 10 mins followed by substrate addition measured after 20 mins by absorbance based assay; format: protein assay; settings: filed as activator, time 30.0 min
L02 [14] = assay: Induction of apoptosis in human LO2 cells assessed as late apoptotic cells at 50 uM incubated for 48 hrs by Annexin V-FITC/PI staining based flow cytometry (reference value: 0.044 %); format: functional
[15] = biological target: T1, Mushroom tyrosinase (Agaricus bisporus); assay: Competitive binding affinity to mushroom tyrosinase at 0.5 to 1 mM in presence of 0.25 mM L-DOPA; format: protein assay; settings: filed as activator, dose 0.5-1 mM
L02 [16] = assay: Induction of apoptosis in human LO2 cells assessed as early apoptotic cells at 12.5 uM incubated for 48 hrs by Annexin V-FITC/PI staining based flow cytometry (reference value: 0.85 %); format: functional
[17] = tested on: Staphylococcus epidermidis; assay: Antibacterial activity against Staphylococcus epidermidis assessed as bacterial growth inhibition incubated for 16 hrs by broth microdilution assay; format: functional
L02 [18] = assay: Induction of apoptosis in human LO2 cells assessed as viable cells at 100 uM incubated for 48 hrs by Annexin V-FITC/PI staining based flow cytometry (reference value: 98.0 %); format: functional; settings: read-out: Activity
[19] = Hemolytic activity against chicken erythrocytes up to 100 uM incubated for 1 hr by absorbance based assay; format: toxicity, cell-based, Gallus gallus, Erythrocyte; settings: read-out: Activity
HCT-116 = assay: Cytotoxicity against human HCT-116 cells at 100 uM incubated for 72 hrs by CCK8 assay; format: toxicity, cell-based; settings: hct-116, 72 h
Enterococcus faecalis = assay: Antibacterial activity against Enterococcus faecalis assessed as bacterial growth inhibition incubated for 16 hrs by broth microdilution assay; format: functional
L02 [20] = assay: Cytotoxicity against human LO2 cells at 100 uM incubated for 72 hrs by CCK8 assay; format: toxicity, cell-based; settings: l02, 72 h
[21] = biological target: T1, Mushroom tyrosinase (Agaricus bisporus); assay: Competitive binding affinity to mushroom tyrosinase at 0.1 mM in presence of 0.25 mM L-DOPA; format: protein assay
Enterococcus faecium = assay: Antibacterial activity against Enterococcus faecium assessed as bacterial growth inhibition incubated for 16 hrs by broth microdilution assay; format: functional
L02 [22] = assay: Induction of apoptosis in human LO2 cells assessed as early apoptotic cells at 100 uM incubated for 48 hrs by Annexin V-FITC/PI staining based flow cytometry (reference value: 0.85 %); format: functional
L02 [23] = assay: Induction of apoptosis in human LO2 cells assessed as necrotic cells at 50 uM incubated for 48 hrs by Annexin V-FITC/PI staining based flow cytometry (reference value: 1.12 %); format: functional
L02 [24] = assay: Induction of apoptosis in human LO2 cells assessed as viable cells at 50 uM incubated for 48 hrs by Annexin V-FITC/PI staining based flow cytometry (reference value: 98.0 %); format: functional; settings: read-out: Activity
[25] = Hemolytic activity against chicken erythrocytes at 50 uM incubated for 1 hr by absorbance based assay; format: toxicity, cell-based, Gallus gallus, Erythrocyte; settings: read-out: Activity

SMILES: CCC/C=C\c1ccccc1/C=C/C(=O)N[C@@H](Cc1ccc(O)cc1)C(=O)O
MIC (Bacillus subtilis): > 100 µM
inhibition (Staphylococcus aureus [1]): inactive
inhibition (Pseudomonas aeruginosa): inactive
inhibition (Escherichia coli): inactive
inhibition [2]: inactive
inhibition (Staphylococcus aureus [3]): inactive
MIC (Staphylococcus aureus [4]): > 100 µM

SMILES: CCC/C=C\c1ccccc1/C=C/C(=O)N[C@@H](Cc1ccc(O)cc1)C(=O)OC
Activity (L02 [5]): 0.034%
MIC (Staphylococcus aureus [6]): 20 µM (≈ 7.87 µg/mL)
Activity (L02 [7]): 1.23%
MIC (Bacillus subtilis): 12.5 µM (≈ 4.92 µg/mL)
Activity (HaCaT): Non-toxic
MIC (Staphylococcus aureus [8]): 20 µM (≈ 7.87 µg/mL)
Activity (L02 [9]): 0.041%
inhibition (Pseudomonas aeruginosa): inactive
inhibition (Escherichia coli): inactive
viability at 12.5 µM (L02 [10]): 98.5%
Activity (L02 [11]): 1.34%
Activity (L02 [12]): 0.74%
inhibition [2]: inactive
Emax [13]: > 300%
Activity (L02 [14]): 0.024%
Activity [15]: Active
Activity (L02 [16]): 0.2%
MIC [17]: > 40 µM
viability at 100 µM (L02 [18]): 97.7%
hemolysis at 1 h, up to 100 µM [19]: < 5%
Activity (HCT-116): Non-toxic
MIC (Enterococcus faecalis): 20 µM (≈ 7.87 µg/mL)
Activity (L02 [20]): Non-toxic
Activity [21]: inactive
MIC (Enterococcus faecium): 20 µM (≈ 7.87 µg/mL)
Activity (L02 [22]): 0.94%
MIC (Staphylococcus aureus [4]): 12.5 µM (≈ 4.92 µg/mL)
Activity (L02 [23]): 1.33%
viability at 50 µM (L02 [24]): 97.9%

SMILES: CC1(C)S[C@@H]2[C@H](NC(=O)Cc3ccccc3)C(=O)N2[C@H]1C(=O)O [PENICILLIN G]
MIC (Bacillus subtilis): 10 µM (≈ 3.34 µg/mL)
MIC (Staphylococcus aureus [4]): 0.05 µM (≈ 0.0167 µg/mL)

SMILES: CCC/C=C\c1ccccc1/C=C/C(=O)N[C@H](Cc1ccc(O)cc1)C(=O)OC
MIC (Bacillus subtilis): 12.5 µM (≈ 4.92 µg/mL)
Activity (HaCaT): Toxic
hemolysis at 1 h, 50 µM [25]: > 5%
inhibition (Pseudomonas aeruginosa): inactive
inhibition (Escherichia coli): inactive
inhibition [2]: inactive
Emax [13]: > 300%
Activity (HCT-116): Toxic
Activity (L02 [20]): Toxic
MIC (Staphylococcus aureus [4]): 12.5 µM (≈ 4.92 µg/mL)

SMILES: CCC/C=C\c1ccccc1/C=C/C(=O)N[C@@H](Cc1ccccc1)C(=O)OC
MIC (Bacillus subtilis): > 100 µM
inhibition (Pseudomonas aeruginosa): inactive
inhibition (Escherichia coli): inactive
MIC (Staphylococcus aureus [4]): > 100 µM

SMILES: CCC/C=C\c1ccccc1/C=C/C(=O)O
MIC (Bacillus subtilis): > 100 µM
inhibition (Pseudomonas aeruginosa): inactive
inhibition (Escherichia coli): inactive
MIC (Staphylococcus aureus [4]): > 100 µM

SMILES: CN[C@H](CC(C)C)C(=O)N[C@H]1C(=O)N[C@@H](CC(N)=O)C(=O)N[C@H]2C(=O)N[C@H]3C(=O)N[C@H](C(=O)N[C@H](C(=O)O)c4cc(O)cc(O)c4-c4cc3ccc4O)[C@H](O)c3ccc(c(Cl)c3)Oc3cc2cc(c3O[C@@H]2O[C@H](CO)[C@@H](O)[C@H](O)[C@H]2O[C@H]2C[C@](C)(N)[C@H](O)[C@H](C)O2)Oc2ccc(cc2Cl)[C@H]1O [VANCOMYCIN]
MIC (Staphylococcus aureus [6]): 1.4 µM (≈ 2.03 µg/mL)
MIC (Staphylococcus aureus [8]): 2.8 µM (≈ 4.06 µg/mL)
MIC (Enterococcus faecalis): 2.8 µM (≈ 4.06 µg/mL)
MIC (Enterococcus faecium): 2.8 µM (≈ 4.06 µg/mL)

SMILES: CCC/C=C\c1ccccc1/C=C/C(=O)N[C@H](Cc1ccc(O)cc1)C(=O)O
MIC (Bacillus subtilis): > 100 µM
inhibition (Staphylococcus aureus [1]): inactive
inhibition (Pseudomonas aeruginosa): inactive
inhibition (Escherichia coli): inactive
inhibition [2]: inactive
inhibition (Staphylococcus aureus [3]): inactive
MIC (Staphylococcus aureus [4]): > 100 µM

SMILES: CCC/C=C\c1ccccc1/C=C/C(=O)N[C@@H](Cc1c[nH]c2ccccc12)C(=O)OC
MIC (Bacillus subtilis): > 100 µM
inhibition (Pseudomonas aeruginosa): inactive
inhibition (Escherichia coli): inactive
MIC (Staphylococcus aureus [4]): > 100 µM

SMILES: CCC/C=C\c1ccccc1/C=C/C(=O)N[C@@H](C)C(=O)OC
MIC (Bacillus subtilis): 100 µM (≈ 30.1 µg/mL)
inhibition (Pseudomonas aeruginosa): inactive
inhibition (Escherichia coli): inactive
MIC (Staphylococcus aureus [4]): > 100 µM

Continued, in another order:

MIC (Bacillus subtilis): > 100 µM
inhibition [2]: inactive
MIC (Staphylococcus aureus [4]): 100 µM (≈ 39.3 µg/mL)
SMILES: COC(=O)[C@H](Cc1ccc(O)cc1)NC(=O)/C=C/c1ccccc1C(F)(F)F
inhibition (Pseudomonas aeruginosa): inactive
inhibition (Escherichia coli): inactive

MIC (Bacillus subtilis): 100 µM (≈ 34.3 µg/mL)
inhibition [2]: inactive
MIC (Staphylococcus aureus [4]): > 100 µM
SMILES: COC(=O)[C@H](Cc1ccc(O)cc1)NC(=O)/C=C/c1ccccc1F
inhibition (Pseudomonas aeruginosa): inactive
inhibition (Escherichia coli): inactive

MIC (Bacillus subtilis): > 100 µM
inhibition [2]: inactive
MIC (Staphylococcus aureus [4]): > 100 µM
SMILES: COC(=O)[C@H](Cc1ccc(O)cc1)NC(=O)/C=C/c1ccccc1
inhibition (Pseudomonas aeruginosa): inactive
inhibition (Escherichia coli): inactive

MIC (Bacillus subtilis): 100 µM (≈ 33.9 µg/mL)
inhibition [2]: inactive
Emax [13]: > 300%
MIC (Staphylococcus aureus [4]): > 100 µM
SMILES: COC(=O)[C@H](Cc1ccc(O)cc1)NC(=O)/C=C/c1ccccc1C
inhibition (Pseudomonas aeruginosa): inactive
inhibition (Escherichia coli): inactive

MIC (Bacillus subtilis): 100 µM (≈ 35.5 µg/mL)
inhibition [2]: Active
MIC (Staphylococcus aureus [4]): 100 µM (≈ 35.5 µg/mL)
SMILES: COC(=O)[C@H](Cc1ccc(O)cc1)NC(=O)/C=C/c1ccccc1OC
inhibition (Pseudomonas aeruginosa): inactive
inhibition (Escherichia coli): inactive

MIC (Bacillus subtilis): 100 µM (≈ 40.4 µg/mL)
inhibition [2]: inactive
MIC (Staphylococcus aureus [4]): 100 µM (≈ 40.4 µg/mL)
SMILES: COC(=O)[C@H](Cc1ccc(O)cc1)NC(=O)/C=C/c1ccccc1Br
inhibition (Pseudomonas aeruginosa): inactive
inhibition (Escherichia coli): inactive
